The test system of the assay is TNF-α. The assay is described as follows: Cell-based TNF-α inhibition assay (LPS-induced PBMCs, Meso Scale). The settings on record: PBMC, PBMCs pretreated 1 h, LPS 100 ng/mL 18-24 h, percentage of stimulated DMSO control; for inhibition at 0.1 µM: compound concentration 0.1 μM; for inhibition at 1 µM: compound concentration 1 μM. The method, then: Example B1. Cell-Based TNF-α Inhibition Assay
Frozen primary blood mononuclear cells (PBMCs) were quick thawed, washed once with RPMI 1640 media supplemented with 10% fetal bovine serum, 1% penicillin, and 1% streptomycin, and plated in a 96 well plate at 200,000 cells per well. The cells were pretreated with DMSO only as a control or a compound for 1 h, and then induced with LPS (lipopolysaccharide) (100 ng/mL) for 18-24 h. The supernatant was analyzed for TNF-α using the Meso Scale assay. Compound activity was determined as a percentage of the stimulated DMSO control. The results are summarized in Table 1, where A represents a percent inhibition value ≥60%; B represents a percent inhibition value <60% and ≥40%; C represents a percent inhibition value <40% and ≥20%; and D represents a single percent inhibition value <20%.

Regarding `Cc1ncsc1-c1ccc(CNC(=O)[C@@H]2C[C@@H](O)CN2C(=O)[C@@H](NC(=O)CCCCCCCCOc2cc(C(=O)Nc3c(Cl)cncc3Cl)ccc2OCC2CC2)C(C)(C)C)cc1` [Compound B22, (2S,4R)-1-((S)-2-(9-(2-(Cyclopropylmethoxy)-5-((3,5-dichloropyridin-4-yl)carbamoyl)phenoxy)nonanamido)-3,3-dimethylbutanoyl)-4-hydroxy-N-(4-(4-methylthiazol-5-yl)benzyl)pyrrolidine-2-carboxamide], the inhibition at 0.1 µM is below 20% and the inhibition at 1 µM was 20 to 40%. For `CCOc1cc([C@@H](CS(C)(=O)=O)N2C(=O)c3cc(CCCCCCCCCCCCC(=O)N[C@H](C(=O)N4C[C@H](O)C[C@H]4C(=O)NCc4ccc(-c5scnc5C)cc4)C(C)(C)C)cc(NC(C)=O)c3C2=O)ccc1OC` [Compound A61, (2S,4R)-1-[(2S)-2-(13-{7-Acetamido-2-[(1S)-1-(3-ethoxy-4-methoxyphenyl)-2-methanesulfonylethyl]-1,3-dioxo-2,3-dihydro-1H-isoindol-5-yl}tridecanamido)-3,3-dimethylbutanoyl]-4-hydroxy-N-{[4-(4-methyl-1,3-thiazol-5-yl)phenyl]methyl}pyrrolidine-2-carboxamide], in that order: at least 60% and at least 60%. Take `CCOc1cc([C@@H](CS(C)(=O)=O)N2C(=O)c3cc(CCCCCCCCCCCCNc4cccc(NC5CCC(=O)NC5=O)c4)cc(N)c3C2=O)ccc1OC` (stereo partly drawn) [Compound A90, 4-Amino-6-[12-({3-[(2,6-dioxopiperidin-3-yl)amino]phenyl}amino)dodecyl]-2-[(1S)-1-(3-ethoxy-4-methoxyphenyl)-2-methanesulfonylethyl]-2,3-dihydro-1H-isoindole-1,3-dione]: the inhibition at 0.1 µM is at least 60% and the inhibition at 1 µM was at least 60%. On to `CCOc1cc([C@@H](CS(C)(=O)=O)N2C(=O)c3cccc(NC(=O)CCCCCCCCNCc4ccc(COc5cccc6c5CN(C5CCC(=O)NC5=O)C6=O)cc4)c3C2=O)ccc1OC` (stereo partly drawn) [Compound A16, 9-({[4-({[2-(2,6-Dioxopiperidin-3-yl)-1-oxo-2,3-dihydro-1H-isoindol-4-yl]oxy}-methyl)phenyl]methyl}amino)-N-{2-[(1S)-1-(3-ethoxy-4-methoxyphenyl)-2-methanesulfonylethyl]-1,3-dioxo-2,3-dihydro-1H-isoindol-4-yl}nonanamide], for which the inhibition at 0.1 µM is at least 60% and the inhibition at 1 µM is at least 60%. For the compound `CCOc1cc([C@@H](CS(C)(=O)=O)N2C(=O)c3cccc(NC(=O)CCCc4cn(CCN5CCC(c6cc7c(cc6F)C(=O)N(C6CCC(=O)NC6=O)C7)CC5)nn4)c3C2=O)ccc1OC` (stereo partly drawn) [Compound A24, 4-[1-(2-{4-[2-(2,6-Dioxopiperidin-3-yl)-6-fluoro-1-oxo-2,3-dihydro-1H-isoindol-5-yl]piperidin-1-yl}ethyl)-1H-1,2,3-triazol-4-yl]-N-{2-[(1S)-1-(3-ethoxy-4-methoxyphenyl)-2-methanesulfonylethyl]-1,3-dioxo-2,3-dihydro-1H-isoindol-4-yl}butanamide], the inhibition at 0.1 µM is at least 60% and the inhibition at 1 µM is at least 60%. `CCOc1cc([C@@H](CS(C)(=O)=O)N2C(=O)c3cccc(NC(=O)CCCCCCCCCCN(C)Cc4ccc(OCc5scc6c5CN(C5CCC(=O)NC5=O)C6=O)cc4)c3C2=O)ccc1OC` (stereo partly drawn) [Compound A46, 11-{[(4-{[5-(2,6-Dioxopiperidin-3-yl)-4-oxo-4H,5H,6H-thieno[3,4-c]pyrrol-1-yl]methoxy}phenyl)methyl](methyl)amino}-N-{2-[(1S)-1-(3-ethoxy-4-methoxyphenyl)-2-methanesulfonylethyl]-1,3-dioxo-2,3-dihydro-1H-isoindol-4-yl}undecanamide]: the inhibition at 0.1 µM was at least 60% and the inhibition at 1 µM is at least 60%.

For `O=C1CCC(N2Cc3c(cc(F)cc3C3CCN(CCCCCOc4cc(C(=O)Nc5c(Cl)cncc5Cl)ccc4OC(F)F)CC3)C2=O)C(=O)N1` (centres unmarked) [Compound B5, N-(3,5-Dichloropyridin-4-yl)-4-(difluoromethoxy)-3-((5-(4-(2-(2,6-dioxo-piperidin-3-yl)-6-fluoro-1-oxoisoindolin-4-yl)piperidin-1-yl)pentyl)oxy)benzamide], the inhibition at 0.1 µM was at least 60%. For the compound `CCOc1cc([C@@H](CS(C)(=O)=O)N2C(=O)c3cccc(NC(=O)CCCCCCCCCCC(=O)N[C@H](C(=O)N4C[C@H](O)C[C@H]4C(=O)NCc4ccc(-c5scnc5C)cc4)C(C)(C)C)c3C2=O)ccc1OC` [Compound A64, N-{2-[(1S)-1-(3-Ethoxy-4-methoxyphenyl)-2-methanesulfonylethyl]-1,3-dioxo-2,3-dihydro-1H-isoindol-4-yl}-N′-[(2S)-1-[(2S,4R)-4-hydroxy-2-({[4-(4-methyl-1,3-thiazol-5-yl)phenyl]methyl}carbamoyl)pyrrolidin-1-yl]-3,3-dimethyl-1-oxobutan-2-yl]dodecanediamide], the inhibition at 0.1 µM was at least 60% and the inhibition at 1 µM was at least 60%. As for `CCOc1cc([C@@H](CS(C)(=O)=O)N2C(=O)c3cccc(NC(=O)CCCCCCCCCN[C@H](C(=O)N4C[C@H](O)C[C@H]4C(=O)NCc4ccc(-c5scnc5C)cc4)C(C)(C)C)c3C2=O)ccc1OC` [Compound A65, (2S,4R)-1-[(2S)-2-{[9-({2-[(1S)-1-(3-Ethoxy-4-methoxyphenyl)-2-methanesulfonylethyl]-1,3-dioxo-2,3-dihydro-1H-isoindol-4-yl}carbamoyl)nonyl]amino}-3,3-dimethylbutanoyl]-4-hydroxy-N-{[4-(4-methyl-1,3-thiazol-5-yl)phenyl]methyl}pyrrolidine-2-carboxamide], the inhibition at 0.1 µM was at least 60% and the inhibition at 1 µM is at least 60%.

Regarding `CCOc1cc([C@@H](CS(C)(=O)=O)N2C(=O)c3c(N)ccc(CCCCCCCCCCCCN4CCC(c5cc(F)cc6c5CN(C5CCC(=O)NC5=O)C6=O)CC4)c3C2=O)ccc1OC` (stereo partly drawn) [Compound A18, 4-Amino-7-(12-{4-[2-(2,6-Dioxopiperidin-3-yl)-6-fluoro-1-oxo-2,3-dihydro-1H-isoindol-4-yl]piperidin-1-yl}dodecyl)-2-[(1S)-1-(3-ethoxy-4-methoxyphenyl)-2-methanesulfonylethyl]-2,3-dihydro-1H-isoindole-1,3-dione], the inhibition at 0.1 µM is at least 60% and the inhibition at 1 µM was at least 60%.

As to `CCOc1cc([C@@H](CS(C)(=O)=O)N2C(=O)c3cccc(NCCc4ccc(CCCCNCc5ccc(OCc6scc7c6CN(C6CCC(=O)NC6=O)C7=O)cc5)cc4)c3C2=O)ccc1OC` (stereo partly drawn) [Compound A51, 4-({2-[4-(4-{[(4-{[5-(2,6-Dioxopiperidin-3-yl)-4-oxo-4H,5H,6H-thieno[3,4-c]-pyrrol-1-yl]methoxy}phenyl)methyl]amino}butyl)phenyl]ethyl}amino)-2-[(1S)-1-(3-ethoxy-4-methoxyphenyl)-2-methanesulfonylethyl]-2,3-dihydro-1H-isoindole-1,3-dione], the inhibition at 0.1 µM was at least 60% and the inhibition at 1 µM was at least 60%. Consider `CCOc1cc([C@@H](CS(C)(=O)=O)N2C(=O)c3cccc(NC(=O)CCCCCCCN4CCN(CC(=O)Nc5ccc6c(C7CCC(=O)NC7=O)nn(C)c6c5)CC4)c3C2=O)ccc1OC` (stereo partly drawn) [Compound A77, 8-[4-({[3-(2,6-Dioxopiperidin-3-yl)-1-methyl-1H-indazol-6-yl]carbamoyl}-methyl)piperazin-1-yl]-N-{2-[(1S)-1-(3-ethoxy-4-methoxyphenyl)-2-methanesulfonylethyl]-1,3-dioxo-2,3-dihydro-1H-isoindol-4-yl}octanamide], for which the inhibition at 0.1 µM is at least 60% and the inhibition at 1 µM was at least 60%. Take `CCOc1cc([C@@H](CS(C)(=O)=O)N2C(=O)c3cccc(NC(=O)CCCc4cn(CCNCc5ccc(OCc6scc7c6CN(C6CCC(=O)NC6=O)C7=O)cc5)nn4)c3C2=O)ccc1OC` (stereo partly drawn) [Compound A48, 4-[1-(2-{[(4-{[5-(2,6-Dioxopiperidin-3-yl)-4-oxo-4H,5H,6H-thieno[3,4-c]pyrrol-1-yl]methoxy}phenyl)methyl]amino}ethyl)-1H-1,2,3-triazol-4-yl]-N-{2-[(1S)-1-(3-ethoxy-4-methoxyphenyl)-2-methanesulfonylethyl]-1,3-dioxo-2,3-dihydro-1H-isoindol-4-yl}butanamide]: the inhibition at 0.1 µM fell in the range of 40 to 60% and the inhibition at 1 µM is at least 60%. For `CCOc1cc([C@@H](CS(C)(=O)=O)N2C(=O)c3cc(CCCCCCCCCCCCNc4cccc(NC5CCC(=O)NC5=O)c4)cc(NC(C)=O)c3C2=O)ccc1OC` (stereo partly drawn) [Compound A89, N-{6-[12-({3-[(2,6-Dioxopiperidin-3-yl)amino]phenyl}amino)dodecyl]-2-[(1S)-1-(3-ethoxy-4-methoxyphenyl)-2-methanesulfonylethyl]-1,3-dioxo-2,3-dihydro-1H-isoindol-4-yl}acetamide], the inhibition at 0.1 µM was at least 60% and the inhibition at 1 µM was at least 60%.

For `CCOc1cc([C@@H](CS(C)(=O)=O)N2C(=O)c3cccc(NC(=O)CCCN4CCN(CCNCc5ccc(OCc6scc7c6CN(C6CCC(=O)NC6=O)C7=O)cc5)CC4)c3C2=O)ccc1OC` (stereo partly drawn) [Compound A45, 4-[4-(2-{[(4-{[5-(2,6-Dioxopiperidin-3-yl)-4-oxo-4H,5H,6H-thieno[3,4-c]pyrrol-1-yl]methoxy}phenyl)methyl]amino}ethyl)piperazin-1-yl]-N-{2-[(1S)-1-(3-ethoxy-4-methoxy-phenyl)-2-methanesulfonylethyl]-1,3-dioxo-2,3-dihydro-1H-isoindol-4-yl}butanamide], the inhibition at 0.1 µM was at least 60% and the inhibition at 1 µM is at least 60%.

Broadly, the inhibition is how much of the control response was suppressed.

The values are drawn from patent US20240124418A1 (BioTheryX, Inc., priority 2020, published 2024).
